Measured values published in ChEMBL document CHEMBL1155191, “Simple dihydrosphyngosine analogues with potent activity against MDR-Mycobacterium tuberculosis” (2009).
≈ marks a conversion by molar mass, not a printed value.

Assays:
Assay type in all cases: functional
[1] = test system: Mycobacterium tuberculosis; test: Ratio of ethambutol MIC to compound MIC for Mycobacterium tuberculosis H37Rv ATCC 27294
[2] = test system: Mycobacterium tuberculosis; test: Antimycobacterial activity against Mycobacterium tuberculosis H37Rv ATCC 27294 after 5 to 7 days by microplate alamar blue assay
[3] = test system: Mycobacterium tuberculosis; test: Ratio of ethambutol MIC to compound MIC for Mycobacterium tuberculosis CIB99
[4] = test system: Mycobacterium tuberculosis; test: Antimycobacterial activity against Mycobacterium tuberculosis CIB99 after 5 to 7 days by microplate alamar blue assay

SMILES | Ratio [1] | MIC [2] [µM] | Ratio [3] | MIC [4] [µM]
CCCCCCCCCCCCCCC(CN(CC)CC)NC(=O)OC(C)(C)C (stereo not given) | 0.65 | 15.2 (≈ 6.27 µg/mL) | >10 | 15.2 (≈ 6.27 µg/mL)
CC[C@@H](CO)NCCN[C@@H](CC)CO [ETHAMBUTOL] | 1 | 9.9 (≈ 2.02 µg/mL) | 1 | > 158
CCCCCCCCCCCCCCC(COCc1ccccc1)NC(=O)CCC(=O)O (stereo not given) | 0.07 | 140 (≈ 62.7 µg/mL) | >1.1 | 140 (≈ 62.7 µg/mL)
CCCCCCCCCCCCCCC(O)CNCc1ccccc1 (stereo not given) | 0.28 | 36 (≈ 12.5 µg/mL) | >2.2 | 72 (≈ 25 µg/mL)
CCCCCCCCCCCCCCC(CN)NC(=O)OC(C)(C)C (stereo not given) | 0.3 | 30 (≈ 10.7 µg/mL) | >5.2 | 30 (≈ 10.7 µg/mL)
CCCCCCCCCCCCCCC(N)CO (stereo not given) | 0.41 | 24 (≈ 6.18 µg/mL) | >16 | 49 (≈ 12.6 µg/mL)
CCCCCCCCCCCCCCC(COCc1ccccc1)NC(=O)CCCC(=O)O (stereo not given) | 0.14 | 68 (≈ 31.4 µg/mL) | >2.3 | 68 (≈ 31.4 µg/mL)
CCCCCCCCCCCCCCC(CO)N(CC)CC (stereo not given) | 0.5 | 20 (≈ 6.27 µg/mL) | >3.9 | 40 (≈ 12.5 µg/mL)
CCCCCCCCCCCCCCC(N)CN (stereo not given) | 0.8 | 12.6 (≈ 3.23 µg/mL) | >12 | 12.6 (≈ 3.23 µg/mL)
CCCCCCCCCCCCCCC(O)CNC1CCCCC1 (stereo not given) | 0.3 | 33 (≈ 11.2 µg/mL) | >14 | 11 (≈ 3.74 µg/mL)
CCCCCCCCCCCCCCC(COCc1ccccc1)NCC(=O)OCC (stereo not given) | 0.13 | 72 (≈ 31.2 µg/mL) | >2.2 | 72 (≈ 31.2 µg/mL)
CCCCCCCCCCCCCCC(N)CN(CC)CC (stereo not given) | 2.5 | 4 (≈ 1.25 µg/mL) | >19 | 8 (≈ 2.5 µg/mL)
CCCCCCCCCCCCCCC(COCc1ccccc1)NCC (stereo not given) | 0.6 | 16.6 (≈ 6.24 µg/mL) | >9.5 | 16.6 (≈ 6.24 µg/mL)
CCCCCCCCCCCCCCC(CNC(=O)CCCC(=O)O)NC(=O)OC(C)(C)C (stereo not given) | 0.07 | 133 (≈ 62.6 µg/mL) | >1.2 | 133 (≈ 62.6 µg/mL)
CCCCCCCCCCCCCCC(CN(CC(=O)OCC)CC(=O)OCC)NC(=O)OC(C)(C)C (stereo not given) | 0.17 | 59 (≈ 31.2 µg/mL) | >2.7 | 59 (≈ 31.2 µg/mL)
CCCCCCCCCCCCCCC(CO)NC(=O)OC(C)(C)C (stereo not given) | 0.12 | 84 (≈ 30 µg/mL) | >5 | 84 (≈ 30 µg/mL)
CCCCCCCCCCCCCCC(N)COCc1ccccc1 (stereo not given) | 2.8 | 3.6 (≈ 1.25 µg/mL) | >43 | 3.6 (≈ 1.25 µg/mL)
CCCCCCCCCCCCCCC(COCc1ccccc1)N(CC)CC (stereo not given) | 3.2 | 3.1 (≈ 1.25 µg/mL) | >50 | 3.1 (≈ 1.25 µg/mL)
CCCCCCCCCCCCCCC(CNCC)NC(=O)OC(C)(C)C (stereo not given) | 0.3 | 32 (≈ 12.3 µg/mL) | >4.9 | 32 (≈ 12.3 µg/mL)
CO[C@H]1/C=C/O[C@@]2(C)Oc3c(C)c(O)c4c(O)c(c(/C=N/N5CCN(C)CC5)c(O)c4c3C2=O)NC(=O)/C(C)=C\C=C\[C@H](C)[C@H](O)[C@@H](C)[C@@H](O)[C@@H](C)[C@H](OC(C)=O)[C@@H]1C [RIFAMPIN] | 650 | 0.152 (≈ 0.125 µg/mL) | 65 | > 2.43
